The record followed here is patent publication US9416132B2, “Substituted imidazo[1,2-b]pyridazines as protein kinase inhibitors” (Tolero Pharmaceuticals, Inc., priority 2011, dated 2016).

The structures appear in SMILES notation. Where two headings read alike, the source gives them in different places.

Data set [1] addresses T1, PIM-1 (Homo sapiens (Human), UniProt P11309). As to the kind of experiment: Pim-1 kinase inhibition assay (Promega Kinase-Glo). The data set is classed as biochemical. As to conditions: read-out: Compound IC50 on Pim1. The text has this:
One illustrative manner in which Pim-1 kinase activity can be determined is by quantifying the amount of ATP remaining in solution after an in vitro Pim-1 kinase reaction. The Kinase-Glo Assay Kit (Promega, Inc., Madison, Wis.) allows this. The amount of ATP remaining in the solution after the kinase reaction serves as a substrate for the luciferase to catalyze luciferin to oxyluciferin plus one photon of light. Thus, the luminescent signal read by the Luminoskan Ascent Instrument (Thermo Electron Corp., Milford, Mass.) correlates with the amount of ATP present after the kinase reaction and inversely correlates with the amount of kinase activity. […] These assays are set up in duplicate 50 ul volumes in white, flat bottom 96 well plates. […] This solution is incubated at 30 degrees Celsius at 360 rpm for two hours. Following the incubation, 50 ul of Kinase-Glo reagent is added to each well, including all positive and negative control wells, and incubated at room temperature for 15 minutes. […] The IC50 values can then be calculated for each inhibitor tested.
For orientation: In Kinase-Glo more light means more ATP remaining.

In data set [2] the target is hERG (Homo sapiens (Human), UniProt Q12809). As to the kind of experiment: hERG Fast Patch assay (WuXiApptec). In kind it is cell-based. (In general: Block of hERG is tested as a sign of cardiac risk.)
Sequence of hERG (Q12809 whole entry): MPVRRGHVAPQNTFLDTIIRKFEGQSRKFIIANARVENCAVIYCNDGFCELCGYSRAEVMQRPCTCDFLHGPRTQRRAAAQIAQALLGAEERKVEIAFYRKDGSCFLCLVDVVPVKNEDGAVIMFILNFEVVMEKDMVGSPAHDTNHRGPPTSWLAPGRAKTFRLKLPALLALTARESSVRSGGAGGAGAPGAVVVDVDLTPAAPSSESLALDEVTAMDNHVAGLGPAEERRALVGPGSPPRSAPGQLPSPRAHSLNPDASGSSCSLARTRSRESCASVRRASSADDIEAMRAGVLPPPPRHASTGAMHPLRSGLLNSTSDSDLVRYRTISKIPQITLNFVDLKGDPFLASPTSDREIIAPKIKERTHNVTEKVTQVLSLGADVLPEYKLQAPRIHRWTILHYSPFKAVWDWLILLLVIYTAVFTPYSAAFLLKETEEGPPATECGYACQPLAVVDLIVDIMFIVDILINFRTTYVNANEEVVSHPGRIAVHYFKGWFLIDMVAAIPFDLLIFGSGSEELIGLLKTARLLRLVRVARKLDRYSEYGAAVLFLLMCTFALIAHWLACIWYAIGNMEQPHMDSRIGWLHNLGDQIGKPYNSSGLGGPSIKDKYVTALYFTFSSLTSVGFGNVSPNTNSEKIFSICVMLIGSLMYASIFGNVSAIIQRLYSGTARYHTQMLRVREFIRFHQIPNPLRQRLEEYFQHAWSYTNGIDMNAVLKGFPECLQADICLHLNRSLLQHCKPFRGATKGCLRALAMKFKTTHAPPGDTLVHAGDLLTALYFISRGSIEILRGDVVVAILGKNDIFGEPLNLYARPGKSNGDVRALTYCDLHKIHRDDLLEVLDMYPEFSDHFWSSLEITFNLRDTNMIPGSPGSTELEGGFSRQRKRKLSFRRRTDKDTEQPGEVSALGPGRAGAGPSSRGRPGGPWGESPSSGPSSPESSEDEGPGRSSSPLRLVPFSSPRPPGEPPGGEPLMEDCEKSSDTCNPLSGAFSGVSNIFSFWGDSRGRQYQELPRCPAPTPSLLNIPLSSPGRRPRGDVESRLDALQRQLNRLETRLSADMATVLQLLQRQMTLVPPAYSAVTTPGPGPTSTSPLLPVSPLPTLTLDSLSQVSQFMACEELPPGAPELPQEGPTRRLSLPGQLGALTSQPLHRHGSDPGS
Data set [3] addresses T1, PIM-1. Briefly: PIM-1/BAD over-expression phospho-BAD (Ser112) AlphaScreen assay in HEK-293 cells. As to conditions: PIM-1/BAD over-expression in HEK-293 cells; read-out: average EC50, PIM-1 specific cellular activity (BAD Ser112 phosphorylation). In kind it is cell-based. Here is the method: HEK-293 cells (1×10^4) were seeded in a 96-well plate using EMEM media with serum and incubated overnight at 37° C. in 5% CO2. […] Cells were serum starved for an additional 18 hours, then treated 2 hours with various concentrations of SGI-9481 or 0.5% carrier DMSO control. Media was removed and cells were lysed using 25 μl 1× lysis buffer from the AlphaScreen SureFire Phospho-BAD (Ser112) kit from Perkin Elmer. Lysates (4 μl) were transferred to a 384-well proxiplate, and 5 μl of acceptor mix was added to each well and incubated for 2 hours at room temperature. Donor mix (2 μl) was added to each well, and samples incubated for 2 hours at room temperature and reactions measured on an Envision plate reader (Perkin Elmer) with AlphaScreen capabilities. Non-specific phosphorylation of BAD was subtracted using values from PIM-1 KD transfected cells, and the remaining wells were normalized to the DMSO control wells. EC50 values were calculated using GraphPad Prism software (La Jolla, Calif.).
For orientation: In Alpha technology, singlet oxygen from a donor bead excites a nearby acceptor bead.

Data set [4] has as its system 22RV1/PIM-1 xenografts. Briefly: 22RV1/PIM-1 over-expression mouse tumor xenograft. The data set is classed as in vivo. The text has this: (§1) Male and female Nu/Nu mice were purchased from Harlan Sprague Dawley (Indianapolis, Ind.). Female Nu/Nu mice were used for all xenograft evaluations with the exception of the PC-3 xenografts where male Nu/Nu mice were used. Cell lines were expanded in vitro in complete media, and if adherent were harvested by trypsin-EDTA, centrifuged and resuspended in PBS 1:1 with Matrigel (BD Bioscienes). Cells were inoculated subcutaneously in the right hind flank of mice. When tumors reached 100-200 mm^3 by caliper measurement, mice were randomized and dosing of SGI-9481 or vehicle control began and continued every day for 5 days (QD×5) with 2 days off for 18-21 days. Tumor volumes and body weights were determined twice a week, and tumor weights were measured at the completion of the translational xenograft studies.
(§2) The prostate cancer cell line 22RV1 engineered to over-express PIM-1 as previously described (Mumenthaler, et al, Mol. Cancer Ther., 2009, 8(10)2882-93) was evaluated in vivo. A second model engineered to over-express PIM-2 was established using the NIH-3T3 mouse fibroblast cell line.

Data set [5] relates to NIH-3T3/PIM-2 xenografts. As to the kind of experiment: NIH-3T3/PIM-2 over-expression mouse tumor xenograft. In kind it is in vivo.
From the text: as §1, §2

For data set [6], the system named is UM-UC-3 xenograft tumors. Briefly: UM-UC-3 established mouse xenograft tumors. The data set is classed as in vivo.
From the text: as §1, with “When tumors reached 100-200 mm^3 by caliper measurement, mice were randomized and dosing of SGI-9481 or vehicle control began and continued every day for 5 days (QD×5) with 2 days off for 18-21 days.” left out

The subject of data set [7] is PC-3 xenograft tumors. Briefly: PC-3 established mouse xenograft tumors. The data set is classed as in vivo.
From the text: as §1, with “When tumors reached 100-200 mm^3 by caliper measurement, mice were randomized and dosing of SGI-9481 or vehicle control began and continued every day for 5 days (QD×5) with 2 days off for 18-21 days.” left out

The nature of data set [8]: Pharmacokinetic study in PC-3 tumor-burdened mice. The data set is classed as in vivo, mouse. As to conditions: 200 mg/kg.
Data set [9] deals with phosphatidyl inositol-3-kinase (PI3K) family. Briefly: Selectivity study. In kind it is biochemical.
In data set [10] the test system is ML-2 cells (wild-type FLT3) xenografts. Briefly: ML-2 mouse xenograft study. In kind it is in vivo. As to conditions: ML-2 (wild-type FLT3) xenografts.
From the text: as §1

Data set [11] concerns MV-4-11 (FLT3-ITD) xenografts. Briefly: MV-4-11 mouse xenograft study. The data set is classed as in vivo.
From the text: as §1

The mark [12] stands for this setting: 125 mg/kg, less than with 200 mg/kg.

T1 sequence (P11309 whole entry): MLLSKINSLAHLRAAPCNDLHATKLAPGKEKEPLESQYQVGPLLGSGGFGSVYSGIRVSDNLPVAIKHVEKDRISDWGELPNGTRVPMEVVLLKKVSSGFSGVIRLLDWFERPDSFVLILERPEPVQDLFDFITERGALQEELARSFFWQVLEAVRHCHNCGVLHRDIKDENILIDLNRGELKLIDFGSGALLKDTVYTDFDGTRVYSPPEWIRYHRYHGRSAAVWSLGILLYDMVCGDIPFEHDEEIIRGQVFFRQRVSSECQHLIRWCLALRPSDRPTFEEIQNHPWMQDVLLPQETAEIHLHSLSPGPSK

As for `N[C@H]1CC[C@H](Nc2ccc3ncc(-c4cccc(OC(F)(F)F)c4)n3n2)CC1` [Compound 8-8, (3-(3-(Trifluoromethoxy)phenyl)imidazo[1,2-b]pyridazin-6-yl)cyclohexane-trans-1,4-diamine], the IC50 (in general, the concentration needed to halve the response being measured) in [1] (Table IV) turned out to be 4 nM.
For the compound `C[C@]1(O)CC[C@H](Nc2ccc3ncc(-c4cccc(C(F)(F)F)c4)n3n2)CC1` [Compound 8-30, 1-Methyl-4-((3-(3-(trifluoromethyl)phenyl)imidazo[1,2-b]pyridazin-6-yl)amino)-trans-cyclohexanol], the figures for the IC50 in [1] (Table IV) and in data set [2] were 103 nM and 12000 nM, respectively.
Turning to `CC(C)(O)[C@H]1CC[C@H](Nc2ccc3ncc(-c4cccc(C(F)(F)F)c4)n3n2)CC1` [Compound 8-31], in data set [1] (Table IV), the IC50 stood at 1 nM. Also, in data set [3], the EC50 (commonly the concentration giving half of the maximal effect) came out at 67 nM. Further, the subcutaneous tumor growth result in data set [4] (22RV1/PIM-1 + compound vs 22RV1/PIM-1 + vehicle) is “significantly reduced”; in data set [5] (NIH-3T3/PIM-2 + compound vs NIH-3T3/PIM-2 + vehicle) it was “significantly inhibited”. In addition, the body weight changes entry in data set [4] (22RV1/PIM-1 xenograft mice) and in [5] (NIH-3T3/PIM-2 xenograft mice) was “No significant changes in body weight” in each case. For the same compound, the tumor growth inhibition result in data set [6] (setting [12]), in data set [7] (setting [12]) and in data set [10] was “significant tumor growth inhibition” throughout. Further, the “body weight or gross adverse toxicity” value in [6] (oral dosing 200 mg/kg) and in data set [7] (oral dosing 200 mg/kg) was “no significant changes in body weight or gross adverse toxicity” throughout. Besides, the “tumor growth by volume (caliper) and final tumor weight” value in [6] (oral dosing 200 mg/kg) and in data set [7] (oral dosing 200 mg/kg) was “significantly reduced” throughout. In data set [8], the “plasma and tumor tissue levels” value is “above the in vitro proliferation EC50”. The “activity against multiple members of the PI3K family” value in [9] is reported as “inhibitory activity”. The “effect on established xenografts” value in data set [11] was “induced regressions”.
For `CO[C@H]1CC[C@H](Nc2ccc3ncc(-c4cccc(C(F)(F)F)c4)n3n2)CC1` [Compound 8-32, 4-(trans-Methoxycyclohexyl)-3-(3-(trifluoromethyl)phenyl)imidazo[1,2-b]pyridazin-6-amine], in data set [1] (Table IV), the IC50 stood at 115 nM.
As for `C[C@]1(O)CC[C@H](Nc2ccc3ncc(-c4cccc(Cl)c4)n3n2)CC1` [Compound 8-36, 4-((3-(3-Chlorophenyl)imidazo[1,2-b]pyridazin-6-yl)amino)-1-methyl-trans-cyclohexano], the half-inhibitory concentration (IC50) in [1] (Table IV) was 145 nM.
As for `CC(C)(O)[C@H]1CC[C@H](Nc2ccc3ncc(-c4cccc(Cl)c4)n3n2)CC1` [Compound 8-37], the values for the IC50 in data set [1] (Table IV) and in data set [2] were 4 nM and > 30000 nM, respectively.
In the case of `CC(C)(O)[C@H]1CC[C@H](Nc2ccn3ncc(-c4cccc(C(F)(F)F)c4)c3n2)CC1` [Compound 8-56], in data set [2], the IC50 was > 30000 nM.
`CC(C)(O)[C@H]1CC[C@H](Nc2ccn3ncc(-c4cccc(Cl)c4)c3n2)CC1` [Compound 8-63]: the IC50 in [2] was > 30000 nM.
Take `CC(C)(N)[C@H]1CC[C@H](Nc2ccc3ncc(-c4cccc(Cl)c4)n3n2)CC1` [Compound 8-79, N-(trans-4-(2-aminopropan-2-yl)cyclohexyl)-3-(3-chlorophenyl)imidazo[1,2-b]pyridazin-6-amine]: the IC50 in data set [1] (Table IV) amounted to 2 nM.
With `CO[C@H]1CC[C@H](Nc2ccc3nnc(-c4cccc(OC(F)(F)F)c4)n3c2)CC1` [Compound 8-99, 4-(trans-Methoxycyclohexyl)-3-(3-(trifluoromethoxy)phenyl)-[1,2,4]triazolo[4,3-a]pyridin-6-amine], the half-maximal inhibitory concentration (IC50) in data set [1] (Table V) came to 83 nM.
Regarding `C[C@]1(O)CC[C@H](Nc2ccc3nnc(-c4cccc(C(F)(F)F)c4)n3c2)CC1` [Compound 8-108, 1-Methyl-4-((3-(3-(trifluoromethyl)phenyl)-[1,2,4]triazolo[4,3-a]pyridin-6-yl)amino)-trans-cyclohexanol], the IC50 in [1] (Table V) amounted to 70 nM.
In the case of `CO[C@H]1CC[C@H](Nc2ccc3nnc(-c4cccc(Cl)c4)n3c2)CC1` [Compound 8-113, 4-(trans-Methoxycyclohexyl)-3-(3-chlorophenyl)-[1,2,4]triazolo[4,3-a]pyridin-6-amine], in data set [1] (Table V), the half-maximal inhibitory concentration (IC50) is 722 nM.
